In US7745495B2, “Pyridine ketones with herbicidal effect” (Syngenta Crop Protection, Inc., priority 2004, dated 2010):

Experiments:
[1] = system: Abutilon; assay: Pre-emergence herbicidal action; type: in vivo; details: rating 10=total damage, 0=no action; for Pre-emergence herbicidal action: Abutilon: 250 g/ha, after 3 weeks
Protocol: (§1) Monocotyledonous and dicotyledonous test plants are sown in standard soil in plastic pots. […] The test plants are then grown in a greenhouse under optimum conditions. After a test duration of 3 weeks, the test is evaluated in accordance with a scale of ten ratings (10=total damage, 0=no action). Ratings of from 10 to 7 (especially from 10 to 8) indicate good to very good herbicidal action.

[2] = system: Amaranthus; assay: Pre-emergence herbicidal action; type: in vivo; details: rating 10=total damage, 0=no action; for Pre-emergence herbicidal action: Amaranthus: 250 g/ha, after 3 weeks
Protocol: as §1

[3] = system: Digitaria; assay: Pre-emergence herbicidal action; type: in vivo; details: rating 10=total damage, 0=no action; for Pre-emergence herbicidal action: Digitaria: 250 g/ha, after 3 weeks
Protocol: as §1

[4] = system: Echinochloa; assay: Pre-emergence herbicidal action; type: in vivo; details: rating 10=total damage, 0=no action; for Pre-emergence herbicidal action: Echinochloa: 250 g/ha, after 3 weeks
Protocol: as §1

[5] = system: Panicum; assay: Pre-emergence herbicidal action; type: in vivo; details: rating 10=total damage, 0=no action; for Pre-emergence herbicidal action: Panicum: 250 g/ha, after 3 weeks; for Pre-emergent Herbicidal Activity: Panicum: Table B4
Protocol: as §1

[6] = system: Chenopodium; assay: Pre-emergence herbicidal action; type: in vivo; details: 250 g/ha; after 3 weeks; rating 10=total damage, 0=no action
Protocol: (§2) Monocotyledonous and dicotyledonous test plants are sown in standard soil in plastic pots. Immediately after sowing, the test compounds, in the form of an aqueous suspension (prepared from a 25% wettable powder (Example F3, b) according to WO 97/34485) or in the form of an emulsion (prepared from a 25% emulsifiable concentrate (Example F1, c)), are applied by spraying a concentration corresponding to 125 g or 250 g of active ingredient/ha (500 liter of water/ha). The test plants are then grown in a greenhouse under optimum conditions. After a test duration of 3 weeks, the test is evaluated in accordance with a scale of ten ratings (10=total damage, 0=no action). Ratings of from 10 to 7 (especially from 10 to 8) indicate good to very good herbicidal action.

[7] = system: Stellaria; assay: Pre-emergence herbicidal action; type: in vivo; details: 250 g/ha; after 3 weeks; rating 10=total damage, 0=no action
Protocol: as §2

[8] = system: Corn; assay: Pre-emergent herbicidal activity on crop plant; type: in vivo; details: crop plant, rating 10=total damage, 0=no action; for Pre-emergent Herbicidal Activity: Corn: Table B4; for Pre-emergent Herbicidal Activity: Mais: Table B5
Protocol: as §1
(§3) In the following Table B3, the pre-emergent herbicidal activity of compound H-14 according to the invention is compared with 4 compounds according to the prior art. All compounds are structurally identical except for the nature of the alkylene linker attached to the pyridine ring.

[9] = system: Soya; assay: Pre-emergent herbicidal activity on crop plant; type: in vivo; details: crop plant, rating 10=total damage, 0=no action; for Pre-emergent Herbicidal Activity: Soya: Table B4; for Pre-emergent Herbicidal Activity: Soja: Table B5
Protocol: as §1, §3

[10] = system: Xanthium; assay: Pre-emergent herbicidal activity; type: in vivo; details: Table B4, rating 10=total damage, 0=no action
Protocol: as §1
In the following Table B4, the pre-emergent herbicidal activity of compound H-3 according to the invention is compared with compound D according to the prior art. Both compounds are structurally identical except for the length of the alkylene linker attached to the pyridine ring.

[11] = system: Abutilon; assay: Post-emergence herbicidal action; type: in vivo; details: 250 g/ha; 4- to 6-leaf stage; after about 18 days; rating 10=total damage, 0=no action
Protocol: (§4) In a greenhouse, monocotyledonous and dicotyledonous test plants are grown in standard soil in plastic pots and at the 4- to 6-leaf stage are sprayed with an aqueous suspension of the test compounds of formula I prepared from a 25% wettable powder (Example F3, b) according to WO 97/34485) or with an emulsion of the test compounds of formula I prepared from a 25% emulsifiable concentrate (Example F1, c) according to WO 97/34485), in a concentration corresponding to 125 g or 250 g of active ingredient/ha (500 liter of water/ha). The test plants are then grown on in a greenhouse under optimum conditions. After a test duration of about 18 days, the test is evaluated in accordance with a scale of ten ratings (10=total damage, 0=no action). Ratings of from 10 to 7 (especially from 10 to 8) indicate good to very good herbicidal action.

[12] = system: Chenopodium; assay: Post-emergence herbicidal action; type: in vivo; details: 250 g/ha; 4- to 6-leaf stage; after about 18 days; rating 10=total damage, 0=no action
Protocol: as §4

[13] = system: Digitaria; assay: Post-emergence herbicidal action; type: in vivo; details: 250 g/ha; 4- to 6-leaf stage; after about 18 days; rating 10=total damage, 0=no action
Protocol: as §4

[14] = system: Ipomea; assay: Post-emergence herbicidal action; type: in vivo; details: 250 g/ha; 4- to 6-leaf stage; after about 18 days; rating 10=total damage, 0=no action
Protocol: as §4

[15] = system: Panicum; assay: Post-emergence herbicidal action; type: in vivo; details: 250 g/ha; 4- to 6-leaf stage; after about 18 days; rating 10=total damage, 0=no action
Protocol: as §4

[16] = system: Setaria; assay: Post-emergence herbicidal action; type: in vivo; details: 250 g/ha; 4- to 6-leaf stage; after about 18 days; rating 10=total damage, 0=no action
Protocol: as §4

[17] = system: Sinapis; assay: Post-emergence herbicidal action; type: in vivo; details: 250 g/ha; 4- to 6-leaf stage; after about 18 days; rating 10=total damage, 0=no action
Protocol: as §4

[18] = system: Stellaria; assay: Post-emergence herbicidal action; type: in vivo; details: 250 g/ha; 4- to 6-leaf stage; after about 18 days; rating 10=total damage, 0=no action
Protocol: as §4

[19] = system: Brachiaria; assay: Pre-emergent herbicidal activity; type: in vivo; details: Table B5, rating 10=total damage, 0=no action
Protocol: as §1, §3

[20] = system: Scirpus; assay: Pre-emergent herbicidal activity; type: in vivo; details: Table B5, rating 10=total damage, 0=no action
Protocol: as §1
In the following Table B5, the pre-emergent herbicidal activity of compound H-9 according to the invention is compared with compound E according to the prior art. Both compounds are structurally identical except for the length of the alkylene linker attached to the pyridine ring.

Structure (SMILES): COCCCc1nc(C(F)F)ccc1C(=O)C1C(=O)C2CCC(C2)C1=O (stereo not drawn) [Compound H-3, 3-[6-Difluoromethyl-2-(3-methoxy-propyl)-pyridine-3-carbonyl]-bicyclo[3.2.1]octane-2,4-dione]
- Pre-emergence herbicidal action: Abutilon [1]: 10
- Pre-emergent Herbicidal Activity: Abutilon ([1]; Table B4, 30 g/ha): 9
- Pre-emergent Herbicidal Activity: Abutilon ([1]; Table B4, 60 g/ha): 10
- Pre-emergence herbicidal action: Amaranthus [2]: 10
- Pre-emergent Herbicidal Activity: Amaranthus ([2]; Table B4, 30 g/ha): 9
- Pre-emergent Herbicidal Activity: Amaranthus ([2]; Table B4, 60 g/ha): 10
- Pre-emergence herbicidal action: Digitaria [3]: 10
- Pre-emergent Herbicidal Activity: Digitaria ([3]; Table B4, 30 g/ha): 9
- Pre-emergent Herbicidal Activity: Digitaria ([3]; Table B4, 60 g/ha): 9
- Pre-emergence herbicidal action: Echinochloa [4]: 10
- Pre-emergent Herbicidal Activity: Echinochloa ([4]; Table B4, 30 g/ha): 10
- Pre-emergent Herbicidal Activity: Echinochloa ([4]; Table B4, 60 g/ha): 10
- Pre-emergence herbicidal action: Panicum [5]: 10
- Pre-emergent Herbicidal Activity: Panicum ([5]; 30 g/ha): 10
- Pre-emergent Herbicidal Activity: Panicum ([5]; 60 g/ha): 10
- Pre-emergence herbicidal action: Chenopodium [6]: 10
- Pre-emergence herbicidal action: Stellaria [7]: 8
- Pre-emergent Herbicidal Activity: Corn ([8]; 30 g/ha): 0
- Pre-emergent Herbicidal Activity: Corn ([8]; 60 g/ha): 0
- Pre-emergent Herbicidal Activity: Soya ([9]; 30 g/ha): 0
- Pre-emergent Herbicidal Activity: Soya ([9]; 60 g/ha): 0
- Pre-emergent Herbicidal Activity: Xanthium ([10]; 30 g/ha): 7
- Pre-emergent Herbicidal Activity: Xanthium ([10]; 60 g/ha): 7
- Post-emergence herbicidal action: Abutilon [11]: 9
- Post-emergence herbicidal action: Chenopodium [12]: 10
- Post-emergence herbicidal action: Digitaria [13]: 9
- Post-emergence herbicidal action: Ipomea [14]: 8
- Post-emergence herbicidal action: Panicum [15]: 10
- Post-emergence herbicidal action: Setaria [16]: 9
- Post-emergence herbicidal action: Sinapis [17]: 9
- Post-emergence herbicidal action: Stellaria [18]: 9
- melting point: 45 to 46 °C

Structure (SMILES): COCCCc1nc(C(F)(F)Cl)ccc1C(=O)C1C(=O)C2CCC(C2)C1=O (stereo not drawn) [Compound H-9]
- Pre-emergence herbicidal action: Abutilon [1]: 10
- Pre-emergent Herbicidal Activity: Abutilon ([1]; Table B5, 30 g/ha): 8
- Pre-emergent Herbicidal Activity: Abutilon ([1]; Table B5, 60 g/ha): 9
- Pre-emergence herbicidal action: Amaranthus [2]: 9
- Pre-emergent Herbicidal Activity: Amaranthus ([2]; Table B5, 30 g/ha): 8
- Pre-emergent Herbicidal Activity: Amaranthus ([2]; Table B5, 60 g/ha): 8
- Pre-emergence herbicidal action: Digitaria [3]: 10
- Pre-emergent Herbicidal Activity: Digitaria ([3]; Table B5, 30 g/ha): 8
- Pre-emergent Herbicidal Activity: Digitaria ([3]; Table B5, 60 g/ha): 9
- Pre-emergence herbicidal action: Echinochloa [4]: 10
- Pre-emergent Herbicidal Activity: Echinochloa ([4]; Table B5, 30 g/ha): 9
- Pre-emergent Herbicidal Activity: Echinochloa ([4]; Table B5, 60 g/ha): 10
- Pre-emergence herbicidal action: Panicum [5]: 10
- Pre-emergence herbicidal action: Chenopodium [6]: 9
- Pre-emergence herbicidal action: Stellaria [7]: 7
- Pre-emergent Herbicidal Activity: Mais ([8]; 30 g/ha): 0
- Pre-emergent Herbicidal Activity: Mais ([8]; 60 g/ha): 1
- Pre-emergent Herbicidal Activity: Soja ([9]; 30 g/ha): 0
- Pre-emergent Herbicidal Activity: Soja ([9]; 60 g/ha): 1
- Pre-emergent Herbicidal Activity: Brachiaria ([19]; 30 g/ha): 9
- Pre-emergent Herbicidal Activity: Brachiaria ([19]; 60 g/ha): 9
- Pre-emergent Herbicidal Activity: Scirpus ([20]; 30 g/ha): 10
- Pre-emergent Herbicidal Activity: Scirpus ([20]; 60 g/ha): 10
- Post-emergence herbicidal action: Abutilon [11]: 9
- Post-emergence herbicidal action: Chenopodium [12]: 9
- Post-emergence herbicidal action: Digitaria [13]: 9
- Post-emergence herbicidal action: Ipomea [14]: 9
- Post-emergence herbicidal action: Panicum [15]: 9
- Post-emergence herbicidal action: Setaria [16]: 9
- Post-emergence herbicidal action: Sinapis [17]: 7
- Post-emergence herbicidal action: Stellaria [18]: 8
